We go through 5 molecules from patent US10329626B2, “NOL3 is a predictor of patient outcome” (priority 2009, dated 2019).

Where two headings read alike, the source gives them in different places.

In data set [1] the test system is tumor cells. Briefly: Apoptotic cells staining positive with Annexin-V. The data set is classed as cell-based.
The test system of data set [2] is caspase-3. In words: Activated caspase-3 in lysates of treated tumor neurospheres (immunoblot). The data set is classed as cell-based, human. The following applies: tumor neurospheres treated for 72 hours. (In general: In western blotting, separated proteins are transferred to a membrane and probed.)
In data set [3] the test system is LN827 cells. Briefly: Orthotopic glioma model, LN827 cells implanted into brains of mice, bioluminescence imaging. It is filed as in vivo. The conditions noted are these: AMN107 100 mg/kg per day, LBW242 50 mg/kg twice per day, oral gavage; established tumors.
The subject of data set [4] is primary human glioma tumor neurospheres. In words: Primary human glioma tumor neurosphere numbers. The data set is classed as cell-based. The conditions noted are these: neurospheres derived from 2 different patients with GBM.
Protocol: The treatment combination was assayed in primary human glioma tumor neurospheres.
The subject of data set [5] is LN827 cells. Briefly: LN827 cell growth. It is filed as cell-based.
Data set [6] can be described thus: Tissue concentrations of LBW242 after daily parenteral dosing. It is filed as in vivo, mice. The conditions noted are these: 50 mg/kg/d parenterally; for concentration at 14 days: mouse, other: parenteral, after 14 days of daily dosing. From the text:
For treatment of intracranial tumors, the blood-brain barrier (BBB) is an impediment to drug bioavailability. […].

The test system of data set [7] is LN827 cells. Briefly: Apoptosis in LN827 cells after siRNA knockdown of NOL3. The data set is classed as cell-based.
Data set [8] deals with U87 cells. Briefly: U87 cell growth. It is filed as cell-based. The conditions noted are these: single agent at concentrations of up to 50 μM.
Data set [9] relates to LN827 and U87 cells. In words: Glioma cell growth, cell line not given (figures: LN827 and U87). It is filed as cell-based.
Data set [10] concerns PDGFR. Briefly: PDGFR abundance and activation state in LN827 cells (blot). It is filed as cell-based.
Data set [11] deals with cytoplasmic cytochrome c and Smac/Diablo. In words: Mitochondrial outer membrane permeabilization: cytoplasmic cytochrome c and Smac/Diablo in LN827 cells. It is filed as cell-based. The source says: Multiple upstream pro-apoptotic signals converge at the level of the mitochondria, resulting in mitochondrial outer membrane permeabilization (MOMP) and release of the pro-apoptotic mediators cytochrome c and Smac/Diablo (FIG. 1A).

In data set [12] the test system is caspase 3/7. Briefly: Caspase 3/7 activation in cells. It is filed as cell-based. From the text:
Next we tested blockade of the growth factor receptor EGFR with the dual EGFR and HER2 kinase inhibitor PKI166 (Bruns et al., 2000).

Data set [13] deals with genes in the apoptotic pathway. The source says:
Table 1 depicts data obtained from mRNA microanalysis for expression of genes in the apoptotic pathway.

In data set [14] the test system is Erk 1/2. In words: Erk 1/2 phosphorylation in LN827 cells (Western blot). The following applies: six hours.
Protocol: Alternative mechanisms by which growth factor inhibition may lead to activation of the apoptotic pathway and mitochondrial permeabilization in tumor cells, e.g., gliomas, were also tested.
For data set [15], the system named is NOL3 protein. In words: Western blot of NOL3 expression. The data set is classed as cell-based. The conditions noted are these: over time.
Data set [16] deals with NOL3 mRNA. Briefly: Independent quantitative RT-PCR analysis of NOL3. The data set is classed as cell-based.
Data set [17] relates to BCL-2 family of proteins. Briefly: Expression of BCL-2 family proteins in LN827 cells (Western blot). It is filed as cell-based.
The subject of data set [18] is Akt. Briefly: Akt (Ser473) and Bad phosphorylation in LN827 cells (immunoblot). The data set is classed as cell-based.

For the molecule `Cc1cn(-c2cc(NC(=O)c3ccc(C)c(Nc4nccc(-c5cccnc5)n4)c3)cc(C(F)(F)F)c2)cn1` [AMN107], the “apoptotic cells staining positive with Annexin-V” value in [1] was “small increase in apoptosis”. In data set [2], the caspase-3 activation entry was “minimal activation”.
Turning to `CNC(C)C(=O)NC(C(=O)N1CCC2CCN(CCc3ccccc3)CC21)C1CCCCC1` (centres unmarked) [LBW242, N-[1-cyclohexyl-2-oxo-2-(6-phenethyl-octahydro-pyrrolo[2,3-c]pyridin-1-yl)-ethyl]-2-methylamino-propionamide], the “tumor growth (tumor burden)” value in [3] is listed as “no appreciable effect on tumor growth”. The neurosphere numbers entry in data set [4] was “stand-alone activity”. Also, in data set [5] (single agent at concentrations of up to 50 μM, data not shown), the “effect on the growth of LN827 cells” value is on record as “no effect”. Moreover, in data set [6], the “crossing of the blood-brain barrier” value was “able to cross even the intact BBB”. Moreover, the concentration at 14 days in [6] (SK-OV-3 tumor-bearing nude mice, read-out: long-term steady-state concentration in tumors) was > 60 µM; in data set [6] (nude, brain, read-out: tissue concentration in normal brain), ~25 µM. The cellular apoptosis entry in data set [7] (depletion of NOL3 (siRNA) combined with LBW242, LN827 cells) is “significant increase in cellular apoptosis”. Further, in data set [8], the “effect on the growth of U87 cells” value was “no effect”. In [1], the “apoptotic cells staining positive with Annexin-V” value is “minimal change in basal apoptotic level”. The “effect on cells over four days of treatment” value in data set [9] is “only mild cytostasis”. In addition, the caspase-3 activation result in data set [2] was “no appreciable caspase-3 activation”. In data set [10] (LN827 cells), the “PDGFR abundance or activity” value is “no effect”. In data set [11] (as a single agent or in combination with imatinib), the “cytochrome c or Smac/Diablo levels” value is reported as “no appreciable effect”.
With `COc1cc([C@@H]2c3cc4c(cc3[C@@H](O[C@@H]3O[C@@H]5CO[C@@H](C)O[C@H]5[C@H](O)[C@H]3O)[C@H]3COC(=O)[C@H]23)OCO4)cc(OC)c1O` [etoposide], the “effect of NOL3 depletion on the induction of apoptosis” value in data set [7] (NOL3 siRNA knockdown) is given as “no effect on the induction of apoptosis”.
Take `C[C@@H](Nc1ncnc2[nH]c(-c3ccc(O)cc3)cc12)c1ccccc1` [PKI166]: in data set [12], the “caspase 3/7 activation” value is on record as “increased levels of caspase 3/7 activation”.
`Cc1ccc(NC(=O)c2ccc(CN3CCN(C)CC3)cc2)cc1Nc1nccc(-c2cccnc2)n1` [imatinib]: in data set [4], the neurosphere numbers entry is listed as “stand-alone activity”. For the same molecule, the “effect on cell growth” value in data set [5] (imatinib at 10 μM, LN827 cells) is on record as “no effect on cell growth”. Further, the “concentrations at which inhibition of LN827 cell growth was observed” value in data set [5] (mono-therapy) was > 20 µM. Moreover, the “NOL3 expression in individual multi-well screens” value in data set [13] is recorded as “downregulate NOL3 in 7 individual multi-well screens”. Moreover, the “change in mRNA expression of pro- and anti-apoptotic mediators” value in data set [13] (imatinib 10 μM) is listed as “significant change in the expression of only one gene tested: NOL3”. Further, the “phosphorylation of Erk 1/2” value in data set [14] is on record as “did not inhibit phosphorylation of Erk 1/2”. In [15], the NOL3 protein levels entry was “correlative decrease in NOL3 protein levels”. In addition, in [12], the “caspase 3/7 activation” value was “no activation of caspase 3 or 7”. The “NOL3 mRNA expression” value in data set [16] was “significantly reduced NOL3 mRNA expression”. The “expression of anti- or pro-apoptotic members of the BCL-2 family of proteins” value in data set [17] was “A significant change in expression was not observed”. Moreover, the “effect on cells over four days of treatment” value in data set [9] is “only mild cytostasis”. Further, in data set [9] (single agent), the “doses at which cell growth was inhibited” value is > 10 µM. The caspase-3 activation result in data set [2] is reported as “no appreciable caspase-3 activation”. Besides, in data set [10] (LN827 cells), the “overall abundance of PDGFR” value is “no effect”. In addition, the “activation state of PDGFR” value in [10] (imatinib at 2.5 uM in LN827 cells) was “almost completely abolished”. In [18], the Akt phosphorylation entry is given as “did not inhibit Akt phosphorylation” and the “downstream phosphorylation of Bad” value is recorded as “nor did it inhibit the downstream phosphorylation of Bad”. Besides, the “concentration at which MOMP was observed” value in [11] (LN827 cells) was 2.5 µM.
